Results taken from patent US10294202B2, “Pyrrolidinones as herbicides” (FMC Corporation, priority 2013, dated 2019).

Legend:
[1] = tested on: corn; assay: Test A pre-/postemergence herbicide test; format: in vivo, Zea mays; settings: for Corn plant response rating: Preemergence, visual rating on 0 to 100 scale (0 no effect, 100 complete control)
In short: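 Directed soil spray to seeded pots (preemergence) or spray onto one- to two-leaf seedlings 2–10 cm tall (postemergence); loam/sand substrate throughout. Evaluated visually after about 10 days against untreated plants, 0 = no effect, 100 = complete control.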

[2] = tested on: waterhemp; assay: Test C pre-/postemergence herbicide test; format: in vivo, Amaranthus rudis; settings: Preemergence; for Plant response rating (scale of 0 to 100), Waterhemp: 250 g ai/ha
Text: (§1) Seeds of plant species selected from blackgrass (Alopecurus myosuroides), ryegrass, Italian (Italian ryegrass, Lolium multiflorum), wheat (winter wheat, Triticum aestivum), galium (catchweed bedstraw, Galium aparine), corn (Zea mays), crabgrass, large (large crabgrass, Digitaria sanguinalis), foxtail, giant (giant foxtail, Setaria faberii), johnsongrass (Sorghum halepense), lambsquarters (Chenopodium album), morningglory (Ipomoea coccinea), nutsedge, yellow (yellow nutsedge, Cyperus esculentus), pigweed (Amaranthus retroflexus), ragweed (common ragweed, Ambrosia elatior), soybean (Glycine max), barnyardgrass (Echinochloa crus-galli), oilseed rape (Brassica napus), waterhemp (common waterhemp, Amaranthus rudis), kochia (Kochia scoparia), oat, wild (wild oat, Avena fatua), surinam grass (Brachiaria decumbens), foxtail, green (green foxtail, Setaria viridis), goosegrass (Eleusine indica), bromegrass, downy (downy bromegrass, Bromus tectorum), nightshade (eastern black nightshade, Solanum ptycanthum), cocklebur (common cocklebur, Xanthium strumarium), cupgrass, woolly (woolly cupgrass, Eriochloa villosa), bermudagrass (Cynodon dactylon), sunflower, (common oilseed sunflower, Helianthus annuus), Russian thistle (Salsola kali) and velvetleaf (Abutilon theophrasti) were planted into a blend of loam soil and sand and treated preemergence with test chemicals formulated in a non-phytotoxic solvent mixture which included a surfactant. At the same time, plants selected from these crop and weed species and also barley (winter barley, Hordeum vulgare), […]), chickweed (common chickweed, Stellaria media), deadnettle (henbit deadnettle, Lamium amplexicaule), and canarygrass (littleseed canarygrass, Phalaris minor) were planted in pots containing Redi-Earth® planting medium (Scotts Company, 14111 Scottslawn Road, Marysville, Ohio 43041) comprising spaghnum peat moss, vermiculite, wetting agent and starter nutrients and treated with postemergence applications of test chemicals formulated in the same manner. Plants ranged in height from 2 to 18 cm (1- to 4-leaf stage) for postemergence treatments. Treated plants and controls were maintained in a greenhouse for 13 to 15 days, after which time all species were compared to controls and visually evaluated. Plant response ratings, summarized in Table C, are based on a scale of 0 to 100 where 0 is no effect and 100 is complete control. A dash (-) response means no test result.

[3] = tested on: morningglory; assay: Test C pre-/postemergence herbicide test; format: in vivo, Ipomoea coccinea; settings: Preemergence; for Plant response rating (scale of 0 to 100), Morningglory: 250 g ai/ha
Text: as §1

[4] = tested on: sedge, umbrella; assay: Test B flooded paddy test; format: in vivo, Cyperus difformis; settings: Flood, scale of 0 to 100 where 0 is no effect and 100 is complete control
In short: (§2)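 Plants grown to 2-leaf stage; pots flooded 3 cm above soil and compound applied directly into paddy water, depth held throughout. Visual rating against untreated controls after 13 to 15 days in greenhouse, 0 (no effect) to 100 (complete control).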

[5] = tested on: soybean; assay: Test C pre-/postemergence herbicide test; format: in vivo, Glycine max; settings: Preemergence; for Plant response rating (scale of 0 to 100), Soybean: 250 g ai/ha
Text: as §1

[6] = tested on: johnsongrass; assay: Test C pre-/postemergence herbicide test; format: in vivo, Sorghum halepense; settings: Preemergence; for Plant response rating (scale of 0 to 100), Johnsongrass: 250 g ai/ha
Text: as §1

[7] = tested on: barnyardgrass; assay: Test C pre-/postemergence herbicide test; format: in vivo, Echinochloa crus-galli; settings: Preemergence; for Plant response rating (scale of 0 to 100; 0 is no effect, 100 is complete control), Barnyardgrass: 250 g ai/ha
Text: as §1

[8] = tested on: lambsquarters; assay: Test C pre-/postemergence herbicide test; format: in vivo, Chenopodium album; settings: Preemergence; for Plant response rating (scale of 0 to 100), Lambsquarters: 250 g ai/ha
Text: as §1

[9] = tested on: rice; assay: Test B flooded paddy test; format: in vivo, Oryza sativa; settings: Flood, scale of 0 to 100 where 0 is no effect and 100 is complete control
In short: as §2

[10] = tested on: ragweed; assay: Test C pre-/postemergence herbicide test; format: in vivo, Ambrosia elatior; settings: Preemergence
Text: as §1

[11] = Postemergence, 125 g ai/ha, 0 to 100 scale, 0 no effect, 100 complete control
[12] = Postemergence, 500 g ai/ha, 0 to 100 scale (0 no effect, 100 complete control)
[13] = preemergence, 500 g ai/ha, 0 to 100 scale
[14] = 31 g ai/ha, scale 0 to 100, 0 is no effect and 100 is complete control
[15] = 125 g ai/ha, scale 0 to 100 (0 no effect, 100 complete control)
[16] = Postemergence, 125 g ai/ha, 0 to 100 scale, 0 is no effect, 100 is complete control
[17] = 62 g ai/ha, scale 0 to 100 (0 no effect, 100 complete control)

SMILES: O=C1NCC(c2ccc(F)c(F)c2)C1C(=O)Nc1ccccc1C(F)(F)F (racemic) [Compound 6]
- Plant response rating, Corn [1, 11]: 0
- Plant response rating, Corn [1, 12]: 0
- Corn plant response rating ([1]; 125 g ai/ha): 0
- Plant response rating, Corn [1, 13]: 0

SMILES: O=C1NCC(c2ccc(F)c(C(F)(F)F)c2)C1C(=O)Nc1cccc(F)c1F (racemic) [Compound 77]
- Waterhemp plant response rating [2, 14]: 40
- Plant response rating, Waterhemp ([2]; 62 g ai/ha, scale 0 to 100): 40
- Plant response rating, Waterhemp [2, 15]: 70
- Plant response rating (scale of 0 to 100), Waterhemp [2]: 85
- Morningglory plant response rating [3, 14]: 0
- Plant response rating, Morningglory ([3]; 62 g ai/ha, scale 0 to 100): 0
- Plant response rating, Morningglory [3, 15]: 0
- Plant response rating (scale of 0 to 100), Morningglory [3]: 0
- Plant response rating, Sedge, Umbrella ([4]; 250 g ai/ha): 0
- Soybean plant response rating [5, 14]: 0
- Plant response rating, Soybean ([5]; 62 g ai/ha, scale 0 to 100): 0
- Plant response rating, Soybean [5, 15]: 0
- Plant response rating (scale of 0 to 100), Soybean [5]: 0
- Johnsongrass plant response rating [6, 14]: 20
- Plant response rating, Johnsongrass ([6]; 62 g ai/ha, scale 0 to 100): 55
- Plant response rating, Johnsongrass [6, 15]: 75
- Plant response rating (scale of 0 to 100), Johnsongrass [6]: 90
- Plant response rating, Corn [1, 11]: 50
- Plant response rating, Corn [1, 12]: 70
- Corn plant response rating ([1]; 125 g ai/ha): 0
- Plant response rating, Corn [1, 13]: 30
- Barnyardgrass plant response rating [7, 14]: 90
- Plant response rating, Barnyardgrass ([7]; 62 g ai/ha, scale 0 to 100): 95
- Plant response rating, Barnyardgrass [7, 15]: 95
- Plant response rating (scale of 0 to 100; 0 is no effect, 100 is complete control), Barnyardgrass [7]: 95
- Lambsquarters plant response rating [8, 14]: 75
- Plant response rating, Lambsquarters ([8]; 62 g ai/ha, scale 0 to 100): 85
- Plant response rating, Lambsquarters [8, 15]: 85
- Plant response rating (scale of 0 to 100), Lambsquarters [8]: 98
- Plant response rating, Rice ([9]; 250 g ai/ha): 10

SMILES: O=C1NCC(c2cccc(C(F)F)c2)C1C(=O)Nc1ccccc1F (racemic) [Compound 210]
- Plant response rating, Corn [1, 16]: 0
- Corn plant response rating (0 to 100 scale, 0 is no effect, 100 is complete control) ([1]; Postemergence, 500 g ai/ha): 60

SMILES: O=C1NCC(c2cc(F)cc(F)c2)C1C(=O)Nc1ccccc1Cl (racemic) [Compound 280]
- Waterhemp plant response rating [2, 14]: 0
- Waterhemp plant response rating [2, 17]: 65
- Plant response rating, Waterhemp [2, 15]: 75
- Plant response rating (scale of 0 to 100), Waterhemp [2]: 35
- Morningglory plant response rating [3, 14]: 10
- Morningglory plant response rating [3, 17]: 25
- Plant response rating, Morningglory [3, 15]: 0
- Plant response rating (scale of 0 to 100), Morningglory [3]: 30
- Plant response rating, Sedge, Umbrella ([4]; 500 g ai/ha): 0
- Soybean plant response rating [5, 14]: 0
- Soybean plant response rating [5, 17]: 5
- Plant response rating, Soybean [5, 15]: 0
- Plant response rating (scale of 0 to 100), Soybean [5]: 0
- Johnsongrass plant response rating [6, 14]: 0
- Johnsongrass plant response rating [6, 17]: 0
- Plant response rating, Johnsongrass [6, 15]: 10
- Plant response rating (scale of 0 to 100), Johnsongrass [6]: 10
- Plant response rating, Corn [1, 16]: 0
- Plant response rating, Corn [1, 12]: 0
- Barnyardgrass plant response rating [7, 14]: 55
- Barnyardgrass plant response rating [7, 17]: 65
- Plant response rating, Barnyardgrass [7, 15]: 85
- Plant response rating (scale of 0 to 100; 0 is no effect, 100 is complete control), Barnyardgrass [7]: 95
- Lambsquarters plant response rating [8, 14]: 0
- Lambsquarters plant response rating [8, 17]: 0
- Plant response rating, Lambsquarters [8, 15]: 10
- Plant response rating (scale of 0 to 100), Lambsquarters [8]: 10
- Ragweed plant response rating [10, 14]: 0
- Ragweed plant response rating [10, 17]: 0
- Plant response rating, Ragweed [10, 15]: 0
- Plant response rating (scale of 0 to 100), Ragweed ([10]; 250 g ai/ha): 60
- Plant response rating, Rice ([9]; 500 g ai/ha): 0
